Assay: Polymorphic conversion testing after compression at 1 ton pressure and storage in different environments (DSC/FT-IR)
Assay type: physicochemical
Experimental: Polymorphic Conversion Testing after Compression at 1 Ton Pressure and Storage in Different Environments.
Compacts of glatifloxacin anhydrous and gatifloxacin hemihydrate were prepared and placed in chambers that were equilibrated as follows:
(i) 25° C. and 21% relative humidity (RH);
(iii) 40° C. and 21% RH; and
Compacts of glatifloxacin anhydrous and gatifloxacin hemihydrate were evaluated by DSC and FT-IR immediately after compression, after 2 days of exposure under the above conditions, and after 6 or 7 days of exposure.
Conversion is identified as a change in DSC thermogram or FT-IR pattern.

[1] = 6 or 7 Days at 25° C. and 21% RH
[2] = 6 or 7 Days at 25° C. and 75% RH
[3] = 6 or 7 Days at 40° C. and 21% RH
[4] = 6 or 7 Days at 40° C. and 75% RH

COc1c(N2CCNC(C)C2)c(F)cc2c(=O)c(C(=O)O)cn(C3CC3)c12 (stereo not shown) [Gatifloxacin Anhydrous, 1-cyclopropyl-6-fluoro-1,4-dihydro-8-methoxy-7-(3-methyl-1-piperazinyl)-4-oxo-3-quinolinecarboxylic acid]
Conversion (change in DSC thermogram) (2 Days at 25° C. and 21% RH): No/No | Conversion (change in FT-IR pattern) (2 Days at 25° C. and 21% RH): No/No | Conversion (change in DSC thermogram) (2 Days at 25° C. and 75% RH): No/No | Conversion (change in FT-IR pattern) (2 Days at 25° C. and 75% RH): No/No | Conversion (change in DSC thermogram) (2 Days at 40° C. and 21% RH): No/No | Conversion (change in FT-IR pattern) (2 Days at 40° C. and 21% RH): No/No | Conversion (change in DSC thermogram) (2 Days at 40° C. and 75% RH): Yes/Yes | Conversion (change in FT-IR pattern) (2 Days at 40° C. and 75% RH): Yes/Yes | Conversion (change in DSC thermogram) [1]: No/No | Conversion (change in FT-IR pattern) [1]: No/No | Conversion (change in DSC thermogram) [2]: Yes/Yes | Conversion (change in FT-IR pattern) [2]: Yes/Yes | Conversion (change in DSC thermogram) [3]: No/No | Conversion (change in FT-IR pattern) [3]: No/No | Physical stability [3]: did not effect | Conversion (change in DSC thermogram) [4]: Yes/Yes | Conversion (change in FT-IR pattern) [4]: Yes/Yes | Conversion (change in DSC thermogram) (Immediately after compression): No/No | Conversion (change in FT-IR pattern) (Immediately after compression): No/No | Physical stability (approximately 75% RH for a period of 2 days): deleteriously effects the physical stability

COc1c(N2CCNC(C)C2)c(F)cc2c(=O)c(C(=O)O)cn(C3CC3)c12 (stereo not shown) [Gatifloxacin Hemihydrate, 1-cyclopropyl-6-fluoro-1,4-dihydro-8-methoxy-7-(3-methyl-1-piperazinyl)-4-oxo-3-quinolinecarboxylic acid]
Conversion (change in DSC thermogram) (2 Days at 25° C. and 21% RH): No/No | Conversion (change in FT-IR pattern) (2 Days at 25° C. and 21% RH): No/No | Conversion (change in DSC thermogram) (2 Days at 25° C. and 75% RH): No/No | Conversion (change in FT-IR pattern) (2 Days at 25° C. and 75% RH): No/No | Conversion (change in DSC thermogram) (2 Days at 40° C. and 21% RH): No/No | Conversion (change in FT-IR pattern) (2 Days at 40° C. and 21% RH): No/No | Conversion (change in DSC thermogram) (2 Days at 40° C. and 75% RH): No/No | Conversion (change in FT-IR pattern) (2 Days at 40° C. and 75% RH): No/No | Conversion (change in DSC thermogram) [1]: No/No | Conversion (change in FT-IR pattern) [1]: No/No | Conversion (change in DSC thermogram) [2]: Yes | Conversion (change in FT-IR pattern) [2]: No | Conversion (change in DSC thermogram) [3]: No/No | Conversion (change in FT-IR pattern) [3]: No/No | Physical stability [3]: did not effect | Conversion (change in DSC thermogram) [4]: Yes/Yes | Conversion (change in FT-IR pattern) [4]: Yes/Yes | Conversion (change in DSC thermogram) (Immediately after compression): No/No | Conversion (change in FT-IR pattern) (Immediately after compression): No/No | Physical stability (approximately 75% RH for a period of at least 6 days): deleteriously effects the physical stability

Reference: patent US20060247255A1, “Method for preparing a stable gatifloxacin composition” (priority 2005, published 2006)
